This note sets out measurements from patent US6489348B1, “Fungicidal mixtures based on amide compounds and pyridine derivatives” (BASF Aktiengesellschaft, priority 1997, dated 2002).

The assay deals with powdery mildew of wheat (Erysiphe graminis forma specialis tritici). As to the kind of experiment: Activity against powdery mildew of wheat (protective spray test on potted seedlings). The class given is in vivo. The settings on record: evaluated after 7 days. The procedure:
The active ingredients, separately or together, are formulated as 10% emulsion in a mixture of 63% by weight of cyclohexanone and 27% by weight of emulsifier, and diluted with water to the desired concentration.
Evaluation is carried out by determining the infected leaf areas in percent. These percentages are converted into efficacies. The efficacy (W) is calculated as follows using Abbot's formula: […]
α corresponds to the fungal infection of the treated plants in % and β corresponds to the fungal infection of the untreated (control) plants in % An efficacy of 0 means that the infection level of the treated plants corresponds to that of the untreated control plants; an efficacy of 100 means that the treated plants were not infected.
The expected efficacies of the mixtures of the active ingredients were determined using Colby's formula [R. S. Colby, Weeds 15, 20-22 (1967)] and compared with the observed efficacies.
Colby formula: E=x+y −x·y/100
E expected efficacy, expressed in % of the untreated control, when using the mixture of the active ingredients A and B at the concentrations a and b x efficacy, expressed in % of the untreated control, when using active ingredient A at a concentration of a y efficacy, expressed in % of the untreated control, when using active ingredient B at a concentration of b Leaves of potted […] seedlings of the variety “Fruhgold” were sprayed to runoff point with an aqueous formulation of active ingredient prepared from a stock solution consisting of 10% of active ingredient, 63% of cyclohexanone and 27% of emulsifier. 24 hours after the spray coating had dried on, the leaves were dusted with spores of powdery mildew of wheat (Erysiphe graminis forma specialis tritici). The test plants were subsequently kept in a greenhouse at 20-24° C. and 60-90% relative atmospheric humidity. After 7 days, the extent of the mildew development was determined visually in % infection of the total leaf area.

Where [1] appears, read: 16 ppm active ingredient in the spray liquor.
[2] abbreviates: 63 ppm active ingredient in the spray liquor.

In the case of `O=C(Nc1ccccc1-c1ccc(F)cc1)c1cccnc1Cl` [I.1], the “Efficacy in % of the untreated control” value under setting [1] is recorded as 0% and the “Efficacy in % of the untreated control” value under setting [2] is 0%.

Turning to `O=C(Nc1ccccc1-c1ccc(Cl)cc1)c1cccnc1Cl` [I.2], the “Efficacy in % of the untreated control” value by setting is: under setting [1], 0%; under setting [2], 0%.
